# Measured values as given in patent EP4759814A1, “TRICYCLIC COMPOUND AND USE THEREOF AS MAT2A INHIBITOR” (SK Biopharmaceuticals Co., Ltd., priority 2023, dated 2025).
# Tests used:
# [1] = test system: HCT116 (MTAP del) cell line; assay: Cell proliferation inhibition in MTAP-deficient cancer cells, WST-1 assay; assay type: cell-based; settings: Homo sapiens, HCT-116, 120 hours of drug treatment, maximum concentration 10 µM, read-out: HCT116 MTAP^-/- (IC50, cell proliferation inhibited by 50%)
# Experimental: (§1) The HCT116 (MTAP del) cell line, which is a colorectal cancer cell line with deletion of MTAP gene, was treated with a compound according to an embodiment of the present application as a MAT2A inhibitor, and after culturing for 120 hours, the change in the number of cells was measured with a WST-1 assay reagent. The WST-1 assay is an assay that measures the number of cells by measuring the generation of a chromogenic substance called formazan from tetrazolium salts by intracellular mitochondrial dehydrogenase. In addition, as a control group, a wild-type colorectal cancer HCT116 (MTAP WT) cell line containing the MTAP gene was used to perform the experiment in the same manner as the experimental group.
# (§2) Cell lines and reagents: HCT116 (MTAP WT (catalog number HD PAR-034), MTAP del (catalog number HD R02-033)) cell lines were purchased from Horizon Discovery (USA), and RPMI1640 medium (catalog number 22400-093), FBS (Fetal Bovine serum, catalog number 16000044), and Penicillin/Streptomycin (catalog number 15140-122) were purchased from GIBCO (USA). WST-1 (catalog number EZ-BULK150) was purchased from Dogen (Korea).
# (§3) Experimental procedure: HCT116 (MTAP WT, MTAP del) cell lines were dispensed into a 96-well plate at a concentration of 1,000 cells/well in RPMI1640 culture medium containing 10% FBS and 1% Penicillin/Streptomycin, and allowed to attach for 24 hours. When the cells were attached to the plate, the drug was diluted 4-fold from a maximum concentration of 10 µM and treated on the cells. After 120 hours of drug treatment, 20 µL of WST-1 solution was treated for 2 hours, and absorbance at 450 nm was measured using SpectraMax M4 (Molecular Devices). Data analysis was calculated by taking the DMSO control group value as 100%. For the IC50 value, the concentration at which cell proliferation is inhibited by 50% was calculated through interpolation using a 4-parameter fit of the dose-response curve using the GraphPad Prism 8.4.3 program. The cancer cell proliferation inhibitory ability and selectivity in MTAP-deficient cancer cells of the compounds according to an embodiment of the present application are described in Table 3 (+++: 1 to 100 nM, ++: more than 100 to 1,000 nM, +: more than 1 to 10 µM, -: more than 10 µM).
# [2] = test system: HCT116 (MTAP WT) cell line; assay: Cell proliferation inhibition in wild-type control cells, WST-1 assay; assay type: cell-based; settings: Homo sapiens, HCT-116, 120 hours of drug treatment, maximum concentration 10 µM, read-out: HCT116 WT (IC50, cell proliferation inhibited by 50%)
# Experimental: as §1, §2, §3
# [3] = biological target: T1, MAT2A (Homo sapiens, UniProt P31153); assay: MAT2A inhibitory activity, colorimetric phosphate detection (PiColorLock) enzyme assay; assay type: biochemical; settings: Test Condition 1 or 2 (not stated which per compound); absorbance at 630 nm
# T1 construct: purchased BPS Bioscience (USA) 71401
# T1 sequence (P31153 whole entry): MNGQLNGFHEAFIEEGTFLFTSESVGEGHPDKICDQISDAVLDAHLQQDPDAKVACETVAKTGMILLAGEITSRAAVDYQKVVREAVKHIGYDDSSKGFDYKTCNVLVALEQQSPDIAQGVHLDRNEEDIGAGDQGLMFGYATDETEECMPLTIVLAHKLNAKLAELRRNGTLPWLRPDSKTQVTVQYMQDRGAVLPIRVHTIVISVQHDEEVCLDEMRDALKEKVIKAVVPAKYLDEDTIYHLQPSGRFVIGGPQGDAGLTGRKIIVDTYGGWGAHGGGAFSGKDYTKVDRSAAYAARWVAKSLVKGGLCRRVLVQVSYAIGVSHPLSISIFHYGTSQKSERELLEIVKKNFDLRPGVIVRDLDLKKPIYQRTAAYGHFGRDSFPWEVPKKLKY
# How it was run: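 Compound preincubated 30 min at room temperature with enzyme, then reacted 1 h with ATP and Met; phosphate read colorimetrically at 630 nm. Condition 1: top 50 µM, 12 ng/µL enzyme, 100 µM ATP, 80 µM Met. Condition 2: top 1 µM, 4 ng/µL enzyme, 300 µM ATP, 150 µM Met. Tris pH 8.0 buffer; IC50 by 4-parameter fit.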
SMILES,IC50 [1] [nM],IC50 [2] [nM],IC50 [3] [nM]
"Cc1ccccc1-n1c(=O)c2nccn2c2ccc(C(F)(F)F)nc21 [Example 49, 5-(o-tolyl)-7-(trifluoromethyl)imidazo[1,2-a]pyrido[2,3-e]pyrazin-4(5H)-one]",100 to 1000,> 10000,100 to 1000
"Cc1cn2c(n1)c(=O)n(-c1cccnc1C)c1cc(C(F)(F)F)ccc12 [Example 55, 2-methyl-5-(2-methylpyridin-3-yl)-7-(trifluoromethyl)imidazo[1,2-a]quinoxalin-4(5H)-one]",1 to 100,1000 to 10000,1 to 100
"Cc1ncccc1-n1c(=O)c2ncc(C)n2c2ccc(C(F)(F)F)cc21 [Example 58, 1-methyl-5-(2-methylpyridin-3-yl)-7-(trifluoromethyl)imidazo[1,2-a]quinoxalin-4(5H)-one]",1 to 100,100 to 1000,100 to 1000
"Cc1ccccc1-n1c(=O)c2nccn2c2c(F)cc(Cl)cc21 [Example 71, 7-chloro-9-fluoro-5-(o-tolyl)imidazo[1,2-a]quinoxalin-4(5H)-one]",> 10000,> 10000,1000 to 10000
"COc1cc2c(cc1Br)n(-c1ccccc1C)c(=O)c1nccn12 [Example 74, 7-bromo-8-methoxy-5-(o-tolyl)imidazo[1,2-a]quinoxalin-4(5H)-one]",100 to 1000,> 10000,100 to 1000
"COc1cc2c(cc1Br)n(-c1cccnc1C)c(=O)c1nccn12 [Example 75, 7-bromo-8-methoxy-5-(2-methylpyridin-3-yl)imidazo[1,2-a]quinoxalin-4(5H)-one]",100 to 1000,> 10000,100 to 1000
"Cc1cc2c(cc1Br)n(-c1cccnc1C)c(=O)c1nccn12 [Example 78, 7-bromo-8-methyl-5-(2-methylpyridin-3-yl)imidazo[1,2-a]quinoxalin-4(5H)-one]",1 to 100,> 10000,1 to 100
"Cc1ncccc1-n1c(=O)c2nccn2c2cc(Cl)c(Br)cc21 [Example 79, 7-bromo-8-chloro-5-(2-methylpyridin-3-yl)imidazo[1,2-a]quinoxalin-4(5H)-one]",1 to 100,1000 to 10000,1 to 100
"O=c1c2nccn2c2cc(Cl)c(Br)cc2n1-c1cccnc1C1CC1 [Example 87, 7-bromo-8-chloro-5-(2-cyclopropylpyridin-3-yl)imidazo[1,2-a]quinoxalin-4(5H)-one]",1 to 100,> 10000,1 to 100
"Cc1cc2c(cc1Br)n(-c1cccnc1Cl)c(=O)c1nccn12 [Example 91, 7-bromo-5-(2-chloropyridin-3-yl)-8-methylimidazo[1,2-a]quinoxalin-4(5H)-one]",1 to 100,> 10000,1 to 100
"Cc1ncccc1-n1c(=O)c2nc(Br)c(C)n2c2cc(Cl)c(Br)cc21 [Example 92, 2,7-dibromo-8-chloro-1-methyl-5-(2-methylpyridin-3-yl)imidazo[1,2-a]quinoxalin-4(5H)-one]",> 10000,> 10000,100 to 1000
"Cc1cc2c(cc1C(F)(F)F)n(-c1cccnc1C)c(=O)c1nccn12 [Example 93, 8-methyl-5-(2-methylpyridin-3-yl)-7-(trifluoromethyl)imidazo[1,2-a]quinoxalin4(5H)-one]",1 to 100,> 10000,1 to 100
"Cc1ncccc1-n1c(=O)c2nccn2c2cc(Cl)c(C(F)(F)F)cc21 [Example 96, 8-chloro-5-(2-methylpyridin-3-yl)-7-(trifluoromethyl)imidazo[1,2-a]quinoxalin4(5H)-one]",1 to 100,> 10000,1 to 100
"Cc1ncccc1-n1c(=O)c2nc(N(C)C)c(C)n2c2cc(Cl)c(C(F)(F)F)cc21 [Example 100, 8-chloro-2-(dimethylamino)-1-methyl-5-(2-methylpyridin-3-yl)-7-(trifluoromethyl)imidazo[1,2-a]quinoxalin-4(5H)-one]",100 to 1000,> 10000,100 to 1000

# The remaining lines, values ahead:
IC50 [1] [nM],IC50 [2] [nM],IC50 [3] [nM],SMILES
1000 to 10000,> 10000,100 to 1000,"Cc1cccc(F)c1-n1c(=O)c2nccn2c2ccc(Cl)cc21 [Example 52, 7-chloro-5-(2-fluoro-6-methylphenyl)imidazo[1,2-a]quinoxalin-4(5H)-one]"
1 to 100,100 to 1000,1 to 100,"O=c1c2nccn2c2ccc(Cl)cc2n1-c1cccnc1Cl [Example 54, 7-chloro-5-(2-chloropyridin-3-yl)imidazo[1,2-a]quinoxalin-4(5H)-one]"
1 to 100,1000 to 10000,100 to 1000,"Cc1ncccc1-n1c(=O)c2nccn2c2ccc(C(F)(F)F)cc21 [Example 56, 5-(2-methylpyridin-3-yl)-7-(trifluoromethyl)imidazo[1,2-a]quinoxalin-4(5H)-one]"
1 to 100,100 to 1000,100 to 1000,"Cc1ncccc1-n1c(=O)c2ncc(Br)n2c2ccc(C(F)(F)F)cc21 [Example 57, 1-bromo-5-(2-methylpyridin-3-yl)-7-(trifluoromethyl)imidazo[1,2-a]quinoxalin-4(5H)-one]"
> 10000,> 10000,100 to 1000,"CC(=O)c1nc2c(=O)n(-c3cccnc3C)c3cc(C(F)(F)F)ccc3n2c1O [Example 60, 2-acetyl-1-hydroxy-5-(2-methylpyridin-3-yl)-7-(trifluoromethyl)imidazo[1,2-a]quinoxalin-4(5H)-one]"
1 to 100,1000 to 10000,1 to 100,"O=c1c2nccn2c2ccc(C(F)(F)F)cc2n1-c1cccc2c1CCO2 [Example 65, 5-(2,3-dihydrobenzofuran-4-yl)-7-(trifluoromethyl)imidazo[1,2-a]quinoxalin-4(5H)-one]"
100 to 1000,> 10000,100 to 1000,"Cc1cc2c(cc1Cl)n(-c1ccccc1C)c(=O)c1nccn12 [Example 73, 7-chloro-8-methyl-5-(o-tolyl)imidazo[1,2-a]quinoxalin-4(5H)-one]"
1 to 100,1000 to 10000,1 to 100,"Cc1ncccc1-n1c(=O)c2nccn2c2cc(F)c(Br)cc21 [Example 77, 7-bromo-8-fluoro-5-(2-methylpyridin-3-yl)imidazo[1,2-a]quinoxalin-4(5H)-one]"
1 to 100,> 10000,100 to 1000,"Cc1cc2c(cc1Br)n(-c1cccnc1C)c(=O)c1ncc(C)n12 [Example 84, 7-bromo-1,8-dimethyl-5-(2-methylpyridin-3-yl)imidazo[1,2-a]quinoxalin-4(5H)-one]"
1 to 100,> 10000,100 to 1000,"Cc1ncccc1-n1c(=O)c2ncc(C)n2c2c(Br)c(C)c(Br)cc21 [Example 85, 7,9-dibromo-1,8-dimethyl-5-(2-methylpyridin-3-yl)imidazo[1,2-a]quinoxalin-4(5H)-one]"
100 to 1000,> 10000,100 to 1000,"Cc1ncccc1-n1c(=O)c2ncc(C)n2c2cc(Cl)c(Br)cc21 [Example 86, 7-bromo-8-chloro-1-methyl-5-(2-methylpyridin-3-yl)imidazo[1,2-a]quinoxalin-4(5H)-one]"
100 to 1000,> 10000,100 to 1000,"Cc1ncccc1-n1c(=O)c2ncc(Br)n2c2cc(Cl)c(Br)cc21 [Example 88, 1,7-dibromo-8-chloro-5-(2-methylpyridin-3-yl)imidazo[1,2-a]quinoxalin-4(5H)-one]"
100 to 1000,> 10000,100 to 1000,"Cc1ncccc1-n1c(=O)c2ncc(Cl)n2c2cc(Cl)c(Br)cc21 [Example 89, 7-bromo-1,8-dichloro-5-(2-methylpyridin-3-yl)imidazo[1,2-a]quinoxalin-4(5H)-one]"
1 to 100,> 10000,1 to 100,"Cc1ncccc1-n1c(=O)c2ncc(C)n2c2cc(Cl)c(C(F)(F)F)cc21 [Example 99, 8-chloro-1-methyl-5-(2-methylpyridin-3-yl)-7-(trifluoromethyl)imidazo[1,2-a]quinoxalin-4(5H)-one]"
